From patent US12331343B2, “FAMIN assay methods” (Cambridge Enterprise Limited, priority 2018, dated 2025)
Values belong to the molecule of their own block, whether it stands above or below them.

How the values were obtained:
recombinant human FAMIN [1] = molecular target: T1, recombinant human FAMIN (Homo sapiens, UniProt Q8IV20); assay: specificity of FAMIN activity towards purine and pyrimidine nucleosides (substrate consumption, LC-MS); type: biochemical; details: pure substrate with 10 μg recombinant FAMIN in 100 μl PBS, pH 7.4, 1 h at 37° C. (FIG. 2A, 2N, 2R, 2S)
T1 construct: twin Strep-tag (followed by short linker and TEV cleavage site) (N, cleaved yes); made in house; host or cells: HEK293T
T1 sequence (Q8IV20 1-430): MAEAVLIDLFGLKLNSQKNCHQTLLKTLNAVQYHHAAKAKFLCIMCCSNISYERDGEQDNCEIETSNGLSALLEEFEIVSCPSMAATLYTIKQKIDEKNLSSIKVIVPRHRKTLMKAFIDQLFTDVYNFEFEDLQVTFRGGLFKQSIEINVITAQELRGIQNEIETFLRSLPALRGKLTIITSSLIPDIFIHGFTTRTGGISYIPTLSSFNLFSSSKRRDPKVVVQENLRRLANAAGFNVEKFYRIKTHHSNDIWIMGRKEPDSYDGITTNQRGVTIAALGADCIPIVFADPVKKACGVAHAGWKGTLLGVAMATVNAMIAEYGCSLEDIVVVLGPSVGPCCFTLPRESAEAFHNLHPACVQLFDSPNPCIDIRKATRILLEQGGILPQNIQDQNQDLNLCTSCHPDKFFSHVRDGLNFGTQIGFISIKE
Description: Peak intensity of each extracted chromatogram per given m/z value normalised to maximum level of 100. Controls as indicated include reaction buffer (PBS), protein elution buffer as described in methods, recombinant FAMIN without substrate or protein buffer with adenosine substrate. […] FIGS. 2C, 2D, 2E, and 2F show representative chromatograms and mass spectra for (2C) adenine, (2D) hypoxanthine, (2E) inosine and (2F) ribose-1-phosphate. Upper panels: (2C-E) extracted positive ion chromatogram showing injection of (2C) 1 μM standard of adenine; (2D) 5 μM standard of hypoxanthine; (2E) 5 μM standard of inosine on a BEH C8 column; (2F) extracted negative ion chromatogram showing injection of a 5 μg/mL standard of ribose-1-phosphate on a BEH amide HILIC column. All measurements performed using the Q Exactive Orbitrap and extracted at m/z values of (2C) adenine [M+H]^+: 136.0617, (2D) hypoxanthine [M+H]^+: 137.0457, (2E) inosine [M+H]^+: 269.0877 and (2F) ribose-1-phosphate [M−H]^−: 229.0119 at a tolerance of 2 ppm. Middle panels: Corresponding extracted chromatograms of a representative sample (10 μg recombinant FAMIN^254I incubated with 10 μM adenosine for 1 h in 100 μl phosphate-buffered saline). Peaks at indicated retention times perfectly match those of adenine, hypoxanthine, inosine and ribose-1-phosphate standards. Lower panels: high resolution Fourier transform mass spectrometry (FTMS) mass spectrum of the representative FAMIN^254I incubated sample during the peaks putatively identified as (2C) adenine, (2D) hypoxanthine, (2E) inosine, or (2F) ribose-1-phosphate. Nominal m/z values of (2C) 136, (2D) 137, (2E) 269 and (2F) 229, respectively, were selectively targeted and fragmented using a higher-energy collision dissociation (HCD) collision voltage of 25 eV to give the fragments shown. […] Calculated from absolute levels of hypoxanthine and inosine quantified using ^13C2, ^15N1-hypoxanthine and ^15N4-inosine internal standards, and adenine levels estimated using adenine external standard. […] (SAM; S-adenosylmethionine; MTA, S-methyl-5′-thioadenosine; 2′-dA, 2′-deoxyadenosine; n=3, mean±S.E.M.). […] FIGS. 2P and 2Q show on the left FAMIN catalysed enzymatic reactions. On the right they show levels of guanine or hypoxanthine and ribose-1-phosphate in reactions containing 100 μM guanosine or inosine and recombinant FAMIN or buffer control in 100 μl after 1 h at 37° C. (n=3, mean±S.E.M.). […] On the lower panels adenine, 2′-deoxyinosine, hypoxanthine and deoxyribose-1-phosphate levels following incubation of 10 μg recombinant FAMIN or buffer control with 10 μM 2′deoxyadenosine for 1 h in 100 μl PBS (n=3 each, mean±S.E.M.). […] All metabolite level data in this figure measured as area under the chromatographic peak, normalised for total ion content. *P<0.05 (unpaired, two-tailed Student's t-test).
(§1) Putative enzymatic function of recombinant human strep-tagged FAMIN was investigated against aqueous HepG2 metabolite extracts (dried, Folch extracted from 5×10^6 cells) or nucleoside substrates at indicated concentrations and detected using HPLC-MS as described above. Unless otherwise indicated in the figure legends, HEK293T cell-expressed protein was used for all assays. The reaction mixture (final volume 100 μL) consisted of 10 μg of recombinant protein and 10 μM nucleoside substrate in Dulbecco's PBS (Thermo Fisher), pH 7.4 unless otherwise indicated. The samples were incubated at 37° C. for 1 h and then quenched with ×5 volume of ice-cold methanol. Samples were centrifuged at 21,000 g for 5 min transferred to fresh tubes and then dried down prior to analysis as described above.

recombinant human FAMIN [2] = molecular target: T1, recombinant human FAMIN; assay: adenosine phosphorylase activity of FAMIN (adenosine to adenine and ribose-1-phosphate, LC-MS); type: biochemical; details: 10 μg recombinant FAMIN, 10 μM adenosine in PBS, 1 h at 37° C. (FIG. 5B, 5C)
Description: (§2) FIGS. 5B and 5C show levels of adenine and ribose-1-phosphate ([…]) in the reaction described in FIG. 5A. […] For enzyme kinetic assays a further chromatographic approach was used to allow for analysis of all substrates and products using a single assay. A Waters BEH C8 column was used (100×2.1 mm, 1.7 μm) with a weak mobile phase (A) of aqueous 10 mM ammonium acetate with 0.1% ammonia and a strong mobile phase (B) of acetonitrile. For gradient elution mobile phase B was held at 0% for 1.6 min, followed by a linear gradient to 30% B over 4.0 minutes, a further increase to 90% over 1 min, and a hold at 90% B for 1 min, with re-equilibration for 1.5 minutes giving a total run time of 6.5 minutes. The flow rate was 0.5 mL/min and the injection volume was 2 μL. The needle wash used was 4:1 water:acetonitrile. Putative enzymatic function of recombinant human strep-tagged FAMIN was investigated against aqueous HepG2 metabolite extracts (dried, Folch extracted from 5×10^6 cells) or nucleoside substrates at indicated concentrations and detected using HPLC-MS as described above. Unless otherwise indicated in the figure legends, HEK293T cell-expressed protein was used for all assays. The reaction mixture (final volume 100 μL) consisted of 10 μg of recombinant protein and 10 μM nucleoside substrate in Dulbecco's PBS (Thermo Fisher), pH 7.4 unless otherwise indicated. The samples were incubated at 37° C. for 1 h and then quenched with ×5 volume of ice-cold methanol. Samples were centrifuged at 21,000 g for 5 min transferred to fresh tubes and then dried down prior to analysis as described above.

recombinant human FAMIN [3] = molecular target: T1, recombinant human FAMIN; assay: purine nucleoside phosphorylase activity of FAMIN (inosine to hypoxanthine and ribose-1-phosphate, LC-MS); type: biochemical; details: 10 μg recombinant FAMIN, 10 μM inosine in PBS, 1 h at 37° C. (FIG. 5D, 5E)
Description: as §2, with “The samples were incubated at 37° C. for 1 h and then quenched with ×5 volume of ice-cold methanol. Samples were centrifuged at 21,000 g for 5 min transferred to fresh tubes and then dried down prior to analysis as described above.” left out

recombinant human FAMIN [4] = molecular target: T1, recombinant human FAMIN; assay: adenosine deaminase activity of FAMIN (adenosine to inosine, LC-MS); type: biochemical; details: 10 μg recombinant FAMIN, 10 μM adenosine in PBS, 1 h at 37° C. (FIG. 5A)
[5] = substrate: Nc1ncnc2c1ncn2[C@@H]1O[C@H](CO)[C@@H](O)[C@H]1O; assay: adenosine phosphorylase activity of FAMIN (adenosine to adenine and ribose-1-phosphate, LC-MS); type: biochemical, human; details: other: 500 nM to 100 μM adenosine, adenine production, 1 h at 37° C., pH 7.4 (FIG. 3A)
Description: as §2, with “The samples were incubated at 37° C. for 1 h and then quenched with ×5 volume of ice-cold methanol. Samples were centrifuged at 21,000 g for 5 min transferred to fresh tubes and then dried down prior to analysis as described above.” left out

[6] = substrate: CSC[C@H]1O[C@@H](n2cnc3c(N)ncnc32)[C@H](O)[C@@H]1O; assay: S-methyl-5'-thioadenosine phosphorylase activity of FAMIN (MTA to adenine, LC-MS); type: biochemical, human; details: other: 500 nM to 100 μM MTA, adenine production, 1 h at 37° C., pH 7.4 (FIG. 3A)
Description: Activity measured as inosine, hypoxanthine and adenine production following incubation with protein for 1 h at 37° C. at pH 7.4.
For enzyme kinetic assays a further chromatographic approach was used to allow for analysis of all substrates and products using a single assay. A Waters BEH C8 column was used (100×2.1 mm, 1.7 μm) with a weak mobile phase (A) of aqueous 10 mM ammonium acetate with 0.1% ammonia and a strong mobile phase (B) of acetonitrile. For gradient elution mobile phase B was held at 0% for 1.6 min, followed by a linear gradient to 30% B over 4.0 minutes, a further increase to 90% over 1 min, and a hold at 90% B for 1 min, with re-equilibration for 1.5 minutes giving a total run time of 6.5 minutes. The flow rate was 0.5 mL/min and the injection volume was 2 μL. The needle wash used was 4:1 water:acetonitrile.
as §1, with “The samples were incubated at 37° C. for 1 h and then quenched with ×5 volume of ice-cold methanol. Samples were centrifuged at 21,000 g for 5 min transferred to fresh tubes and then dried down prior to analysis as described above.” left out

[7] = substrate: OC[C@H]1O[C@@H](n2cnc3c(O)ncnc32)[C@H](O)[C@@H]1O; assay: purine nucleoside phosphorylase activity of FAMIN (inosine to hypoxanthine and ribose-1-phosphate, LC-MS); type: biochemical, human; details: other: 500 nM to 100 μM inosine, hypoxanthine production, 1 h at 37° C., pH 7.4 (FIG. 3A)
Description: as §2, with “The samples were incubated at 37° C. for 1 h and then quenched with ×5 volume of ice-cold methanol. Samples were centrifuged at 21,000 g for 5 min transferred to fresh tubes and then dried down prior to analysis as described above.” left out

[8] = substrate: Nc1ncnc2c1ncn2[C@@H]1O[C@H](CO)[C@@H](O)[C@H]1O; assay: adenosine deaminase activity of FAMIN (adenosine to inosine, LC-MS); type: biochemical, human; details: other: 500 nM to 100 μM adenosine, inosine production, 1 h at 37° C., pH 7.4 (FIG. 3A)

Molecule: CSC[C@H]1O[C@@H](n2cnc3c(N)ncnc32)[C@H](O)[C@@H]1O [MTA, S-methyl-5′-thioadenosine]
metabolised by FAMIN as pure substrate (recombinant human FAMIN [1]): metabolised

Molecule: Nc1nc2c(nc(N)n2[C@@H]2O[C@H](CO)[C@@H](O)[C@H]2O)c(=O)[nH]1 [8-aminoguanosine]
effect on FAMIN's adenosine phosphorylase activity (levels of adenine and R-1-P from adenosine) (recombinant human FAMIN [2]): did not affect
effect on FAMIN's purine nucleoside phosphorylase activity (generation of hypoxanthine and R-1-P from inosine) (recombinant human FAMIN [3]): inhibited

Molecule: Nc1ncnc2c1ncn2[C@H]1C[C@H](O)[C@@H](CO)O1 [2′-deoxy-adenosine, 2′-deoxyadenosine]
metabolised by FAMIN as pure substrate (recombinant human FAMIN [1]): metabolised

Molecule: CCCCCC[C@@H]([C@@H](C)O)n1cnc2c(N)ncnc21 (racemic) [EHNA, erythro-9-(2-hydroxy-3-nonyl)adenine]
effect on FAMIN's adenosine phosphorylase activity (levels of adenine and R-1-P from adenosine) (recombinant human FAMIN [2]): intact
effect on adenosine deaminase activity of FAMIN (levels of inosine) (recombinant human FAMIN [4]): inhibited

Molecule: C[C@H]1O[C@@H](n2cnc3c(N)ncnc32)[C@H](O)[C@@H]1O [5′-deoxy-adenosine, 5′-deoxyadenosine]
metabolised by FAMIN as pure substrate (recombinant human FAMIN [1]): substrate of FAMIN

B1: recombinant human FAMIN (Homo sapiens) (protein)
chain: T1 sequence (Q8IV20 1-430)
notes: twin Strep-tag (followed by short linker and TEV cleavage site) (N, cleaved yes); made in house; host or cells: HEK293T
Km [5]: 36 µM
Km [6]: 1 µM
Km [7]: 41 µM
Km [8]: 11 µM

The remaining lines, values ahead:

metabolised by FAMIN as pure substrate (recombinant human FAMIN [1]): consumed
Molecule: Nc1ncnc2c1ncn2[C@@H]1O[C@H](CO)[C@@H](O)[C@H]1O [adenosine]

metabolised by FAMIN as pure substrate (recombinant human FAMIN [1]): metabolised
Molecule: OC[C@H]1O[C@@H](n2cnc3c(O)ncnc32)[C@H](O)[C@@H]1O [inosine]

metabolised by FAMIN as pure substrate (recombinant human FAMIN [1]): not
Molecule: C[S+](CC[C@H](N)C(=O)[O-])C[C@H]1O[C@@H](n2cnc3c(N)ncnc32)[C@H](O)[C@@H]1O (some centres unmarked) [SAM, S-adenosylmethionine]

effect on FAMIN's adenosine phosphorylase activity (levels of adenine and R-1-P from adenosine) (recombinant human FAMIN [2]): intact
Molecule: OC[C@H]1O[C@@H](n2cnc3c2NC=NC[C@H]3O)C[C@@H]1O [pentostatin]

metabolised by FAMIN as pure substrate (recombinant human FAMIN [1]): metabolised
Molecule: Nc1nc2c(ncn2[C@@H]2O[C@H](CO)[C@@H](O)[C@H]2O)c(=O)[nH]1 [guanosine]

metabolised by FAMIN as pure substrate (recombinant human FAMIN [1]): No activity
Molecule: Nc1ccn([C@@H]2O[C@H](CO)[C@@H](O)[C@H]2O)c(=O)n1 [cytidine]
